ChEMBL document CHEMBL1126747, “Multiple copy simultaneous search and construction of ligands in binding sites: application to inhibitors of HIV-1 aspartic proteinase” (J Med Chem, 1993)
Starred links: 1 amine or outer side, 2 acyl side, 3 side chain; linkers in the order of their positions; H or OH if unused. Non-standard residues stand in square brackets, D forms with d. Residues, ends and D or L forms follow the SMILES beside them. X1 = CC(C)C[C@H](N[*:1])[C@@H](O)C[C@H](C(=O)[*:2])C(C)C

Biological target: Human immunodeficiency virus type 1 protease (Human immunodeficiency virus 1, UniProt Q72874)
Test: Binding affinity against HIV-1 aspartic proteinase was determined

| SMILES | Ki [nM] |
| --- | --- |
| CCCC[C@@H](CN[C@@H](CCCC)C(=O)N[C@@H](CCC(N)=O)C(=O)N[C@@H](CCCNC(=N)N)C(N)=O)NC(=O)[C@@H](NC(=O)[C@@H](NC(C)=O)[C@@H](C)O)[C@@H](C)CC | 780 |
| CC[C@H](C)[C@H](NC(=O)[C@@H](C[C@H](O)[C@H](CC(C)C)NC(=O)[C@H](CC(N)=O)NC(=O)[C@H](CCC(N)=O)NC(=O)[C@H](CO)NC(=O)[C@@H](N)C(C)C)C(C)C)C(=O)N[C@H](C(=O)O)C(C)C (H-VSQN[X1]IV-OH) | < 1 |
